Test results taken from ChEMBL document CHEMBL6103551 (Bioorg Med Chem Lett, 2025).

Details: mouse, microsomes, 1 h
Description: Metabolic stability in mouse liver microsomes assessed as reduction in NADPH incubated for 60 mins by fluorescence based assay relative to control

**Q.** For CCOC(=O)N1CCC(NC(=S)Nc2cc(Cl)cc(Cl)c2)CC1, which Stability is on record?
**A.** Stable
